The target in assay [1] is muscarinic receptors. Kind of assay: Radio ligand binding: displacement of muscarinic agonist 3H-OXO-M (3H-Oxotremorine-M), rat cerebral cortex membranes. Further details: species or system Hooded Lister rats. To be noted: 2 nM 3H-OXO-M, 2 mM magnesium chloride, 37° C., 30 min, pH 7.7, non-specific: 10 μM Oxotremorine.
The target in assay [2] is muscarinic receptors. Format: binding, Hooded Lister rats. To be noted: 0.27 nM 3H-QNB; rat cerebral cortex; 37° C., 30 min; pH 7.7; non-specific: 1 μM Atropine sulphate.

As a reminder, the IC50 is the concentration at which inhibition is half-maximal. Higher therefore signals weaker potency in that assay.

SMILES strings stand for the structures. Where a name gives a salt, the structure may show the parent alone. Read-outs that look alike come from different tables or passages of the source.

Turning to `CON=C(Cl)C1CN2CCC1CC2` (racemic) [Example E1, (±) 1-Azabicyclo[2.2.2]oct-3-yl-N-methoxycarboximidoyl chloride oxalate salt], the IC50 on muscarinic receptors [1] is 0.093 µM; against muscarinic receptors [2] it was 0.897 µM.

On to `CON=C(OC)C1CN2CCC1CC2` (racemic) [Example E2, (±) 1-Azabicyclo2.2.2]oct-3-yl-N-methoxycarboximidic acid methyl ester oxidate salt], for which the IC50 came out at 1 µM at muscarinic receptors [1] and 8 µM on muscarinic receptors [2].

As to `C#CC(=NOC)C12CCCN(CC1)C2` (racemic) [Example E4, (±) 1-Azabicyclo[3.2.1]oct-5-yl ethynyl ketone O-methyloxime oxalate salt], the figures for the IC50 on muscarinic receptors [1] and on muscarinic receptors [2] were 0.162 µM and 1.46 µM, respectively.

As for `CON=C(Cl)C12CCCN(CC1)C2` (racemic) [Example E5, (±) 1-Azabicyclo[3.2.1]oct-5-yl-N-methoxycarboximidoyl chloride oxalate salt], the IC50 came to 0.072 µM on muscarinic receptors [1] and 3.82 µM against muscarinic receptors [2].

As for `CON=C(C#N)C12CCCN(CC1)C2` (racemic) [Example E6, (±) α-(Methoxyimino)-α-(1-azabicyclo[3.2.1]oct-5-yl) acetonitrile hydrochloride salt], the IC50 was determined as 0.114 µM on muscarinic receptors [1] and 0.251 µM on muscarinic receptors [2].

In the case of `CON=C(Br)C12CCCN(CC1)C2` (racemic) [Example E7, (±) 1-Azabicyclo[3.2. ]oct-5-yl-N-methoxycarboximidonyl bromide oxalate salt], the IC50 came out at 0.19 µM on muscarinic receptors [1] and 2.85 µM against muscarinic receptors [2].

With `CON=C(F)C1CN2CCC1CC2` (racemic) [Example E10, (±) 1-Azabicyclo[2.2.2]oct-3-yl-N-methoxycarboximidoyl fluoride oxalate salt], the IC50 at muscarinic receptors [1] worked out at 0.034 µM; against muscarinic receptors [2] it was 2.11 µM.

On to `CON=C(C1CC1)C1CN2CCC1CC2` (racemic) [Example E15, (±) 1-Azabicyclo[2.2.2]oct-3-yl cyclopropyl ketone trans-O-methyloxime hydrochloride salt], for which the IC50 at muscarinic receptors [1] was 0.386 µM; on muscarinic receptors [2], 22.2 µM.

In the case of `CON=C(Cl)[C@H]1CN2CC[C@H]1C2` (relative stereo) [Example E8, (±) exo-1-Azabicyclo[2.2.1]hept-3-yl-N-methoxycarboximidoyl chloride oxalate salt], the IC50 came to 0.064 µM at muscarinic receptors [1] and 3.33 µM against muscarinic receptors [2].

On to `CON=C(C#N)[C@H]1CN2CC[C@H]1C2` (relative stereo) [Example E9, (±) exo-α-(Methoxyimino)-α-(1-azabicyclo[2.2.1]hept-3-yl)acetonitrile hydrochloride salt], for which the figures for the IC50 on muscarinic receptors [1] and on muscarinic receptors [2] were 0.025 µM and 2.1 µM, respectively.

As to `CON=C(Cl)[C@@H]1CN2CC[C@H]1C2` (relative stereo) [Example E16, (±) endo-1-Azabicyclo[2.2.1]hept-3-yl -N-methoxycarboximidoyl chloride oxalate salt], the IC50 on muscarinic receptors [1] amounted to 0.099 µM; against muscarinic receptors [2], 7 µM.

Regarding `CON=C(C#N)[C@@H]1CN2CC[C@H]1C2` (relative stereo) [Example E17, (±) endo-α-(Methoxyimino)-α-(1-azabicyclo[2.2.1]hept-3-yl)acetonitrile oxalate salt], the IC50 at muscarinic receptors [1] stood at 0.016 µM; on muscarinic receptors [2], 3.6 µM.

As to `CON=C(Br)[C@H]1CN2CC[C@H]1C2` (relative stereo) [Example E18, (±) exo- and endo-1-Azabicyclo[2.2.1]hept-3-yl-N-methoxycarboximidoyl bromide oxalate salts], the results for the IC50 at muscarinic receptors [1] and against muscarinic receptors [2] were 0.046 µM and 11 µM, respectively.

Turning to `CON=C(Br)[C@@H]1CN2CC[C@H]1C2` (relative stereo) [Example E19, (±) exo- and endo-1-Azabicyclo[2.2.1]hept-3-yl-N-methoxycarboximidoyl bromide oxalate salts], the values for the IC50 on muscarinic receptors [1] and at muscarinic receptors [2] were 0.127 µM and 3.6 µM, respectively.

Regarding `CON=C(F)[C@H]1CN2CC[C@H]1C2` (relative stereo) [Example E20, (±) exo-1-Azabicyclo[2.2.1]hept-3-yl-N-methoxy carboximidoyl fluoride oxalate salt], the IC50 is 0.011 µM at muscarinic receptors [1] and 3 µM on muscarinic receptors [2].

Regarding `CCON=C(Cl)[C@H]1CN2CC[C@H]1C2` (relative stereo) [Example E21, (±) exo-1-Azabicyclo[2.2.1]hept-3-yl-N-ethoxy carboximidoyl chloride oxalate salt], the figures for the IC50 on muscarinic receptors [1] and against muscarinic receptors [2] were 0.57 µM and 15.5 µM, respectively.

Regarding `CCON=C(C#N)[C@H]1CN2CC[C@H]1C2` (relative stereo) [Example E22, (±) exo-α-(Ethoxyimino)-α-(1-azabicyclo[2.2. 1]hept-3-yl)acetonitrile oxalate salt], the values for the IC50 at muscarinic receptors [1] and against muscarinic receptors [2] were 0.233 µM and 10 µM, respectively.

As to `C#CCON=C(Cl)[C@H]1CN2CC[C@H]1C2` (relative stereo) [Example E24, (±) exo- and endo-1-Azabicyclo[2.2.1]hept-3-yl-N-prop-2-ynyloxycarboximidoyl chloride oxalate salts], the half-maximal inhibitory concentration (IC50) on muscarinic receptors [1] worked out at 0.112 µM; against muscarinic receptors [2] it was 2.1 µM.

Turning to `CON=C(CC#N)[C@H]1CN2CC[C@H]1C2` (relative stereo) [Example E27, (±) exo- and endo-3-Oxo-3-(1-azabicyclo[2.2.1]hept-3-yl)propionitrile-O-methyl oxime oxalate salts], the IC50 at muscarinic receptors [1] came out at 0.071 µM; at muscarinic receptors [2] it was 1.1 µM.

As to `CON=C(CC#N)[C@@H]1CN2CC[C@H]1C2` (relative stereo) [Example E28, (±) exo- and endo-3-Oxo-3-(1-azabicyclo[2.2.1]hept-3-yl)propionitrile-O-methyl oxime oxalate salts], the IC50 on muscarinic receptors [1] was 0.75 µM; at muscarinic receptors [2] it was 16.5 µM.

Consider `CON=C(Cl)C12CCN(CC1)C2` [Example E11, 1-Azabicyclo[2.2.1]hept-4-yl-N-methoxycarboximidoyl chloride oxalate salt], for which the figures for the IC50 on muscarinic receptors [1] and at muscarinic receptors [2] were 0.038 µM and 9 µM, respectively.

Regarding `CON=C(C#N)C12CCN(CC1)C2` [Example E12, α-(Methoxyimino)-α-(1-azabicyclo[2.2.1]hept-4-syl)acetonitrilehydrochloride salt], the IC50 is 0.021 µM on muscarinic receptors [1] and 2 µM at muscarinic receptors [2].

Turning to `CON=C(Br)C12CCN(CC1)C2` [Example E13, 1-Azabicyclo[2.2.1]hept-4-yl-N-methoxycarboximidoyl bromide oxalate salt], the IC50 on muscarinic receptors [1] turned out to be 0.17 µM; against muscarinic receptors [2] it was 10 µM.

`CON=C(F)C12CCN(CC1)C2` [Example E14, 1-Azabicyclo[2.2.1]hept-4-yl-N-methoxycarboximidoyl fluoride oxalate salt]: the IC50 worked out at 0.048 µM at muscarinic receptors [1] and 15.5 µM against muscarinic receptors [2].

The values are drawn from patent USRE35593E (priority 1989, dated 1997).
